Values belong to the compound of their own block, whether it stands above or below them. Positions of bridges follow the written chain, without caps; N, C: chain ends. Non-standard residues stand in square brackets, D forms with d. Residues, ends and D or L forms follow the SMILES beside them. *: point of attachment. DOTA = O=C(O)CN1CCN(CC(=O)O)CCN(CC(=O)*)CCN(CC(=O)O)CC1; Mpa = O=C(O)CCS
How the values were obtained:
[1] = target: T1, human OTR (Homo sapiens, UniProt P30559); assay: [111In]-DOTA-dLVT saturation binding assay, membranes of transfected COS7 cells
T1 construct: expressed in transfected cells; host or cells: COS7 (monkey kidney), transient electroporation
T1 sequence (P30559 1-389): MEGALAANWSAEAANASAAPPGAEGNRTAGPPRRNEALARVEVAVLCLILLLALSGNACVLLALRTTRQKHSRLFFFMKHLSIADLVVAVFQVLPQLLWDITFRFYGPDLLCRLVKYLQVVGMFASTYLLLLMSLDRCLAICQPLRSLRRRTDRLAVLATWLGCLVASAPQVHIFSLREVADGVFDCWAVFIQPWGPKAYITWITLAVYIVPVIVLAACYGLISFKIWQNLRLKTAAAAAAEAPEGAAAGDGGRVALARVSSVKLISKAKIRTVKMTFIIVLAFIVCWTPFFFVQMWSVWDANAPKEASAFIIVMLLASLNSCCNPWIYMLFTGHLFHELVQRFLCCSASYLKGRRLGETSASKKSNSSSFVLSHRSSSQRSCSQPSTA
Protocol: (§1) Figure 3 Binding of LVT-derived peptides to human OT/AVP receptor subtypes. (A) Comparison of OT and DOTA-dLVT affinity for the human OTR. Competition experiments were performed using membrane preparations of COS7 cells transiently transfected with the wild-type OTR. [^3H]-OT was used at a concentration of 1–2 nM, and nonspecific binding was determined in the presence of […] OT. Data are expressed as the percentage of bound [^3H]-OT in the absence of cold competitor. The curves are representative of three independent assays performed in triplicate. (B) [^111In]-DOTA-dLVT saturation binding assay. The affinity of [^111In]-DOTA-dLVT for the human OTR was measured by incubating increasing amounts of labelled peptide to membrane preparations of COS7 cells transiently transfected with the wild-type OTR. The curve is representative of two independent assays performed in triplicate. […] The membrane preparations of OTR-expressing cells were incubated in the presence of a constant amount of ^3[H]OT (1–2 nM), and nonspecific binding was determined in the presence of 100 μM OT. The membrane preparations of cells expressing V1a, V1b and V2 receptors were incubated in the presence of a constant amount of ^3[H]AVP (2–4 nM), and nonspecific binding was determined in the presence of 100 μM AVP. The data are expressed as percentages of bound [^3H]-ligand in the absence of cold competitor. […]

[2] = tested on: OTR+ TS/A tumours; assay: in vivo; set-up: species or system Balb/c mice; conditions: mouse; for tissue to tissue ratio at 5 h: female, Balb/c, iv, 74 kBq, total radioactivity
Protocol: To determine the amount and specificity of the receptor-mediated uptake of [^111In]-DOTA-dLVT in tumours, we used an experimental model of OTR+ TS/A tumours growing in Balb/c mice. A total of 10 female Balb/c mice weighing 25 g were subcutaneously injected with TS/A mammary carcinoma (0.3 × 10^6 in 0.2 ml of medium). After 20 days, when the growing tumour had reached about 2 cm in diameter, five mice were intravenously administered 50 μg of cold OT 30 min before the radiotracer and the other five were not. Mice were injected in the tail vein with [^111In]-DOTA-dLVT (average activity: 74 kBq) and killed 5 h later. The organs were collected, washed, weighed and their radioactivity was measured in a gamma-ray detector with well-counter geometry ([…], Milan, Italy) together with standards of the injection mixture. Activity was expressed as the percentage of the injected dose (%ID) g^-1 of tissue, and the uptake ratios of tumour, blood, kidney and liver were calculated. [table]

[3] = target: T1, human OTR; assay: Heterologous competition binding, [3H]-OT displacement, membranes of transfected COS7 cells; conditions: displacement of [3H]-OT; mean±s.e. of three experiments
Protocol: (§2) To determine the LVT, dLVT and DOTA-dLVT affinity constants in comparison with OT, heterologous competition experiments were performed on membranes prepared from monkey kidney COS7 cells transiently transfected by means of electroporation with human OTR, V1a, V2 and V1b cDNAs as previously described ([Chini et al, 1995a]). Briefly, the transfected cells were homogenised with a Dounce glass apparatus, washed twice, and resuspended in binding buffer (50 mM Tris HCl, 5 mM MgCl, pH 7.4). Between 5 and 10 μg of membrane proteins were incubated with a fixed concentration of [^3H]OT (1–2 nM) for 30 min at 30°C in the presence of increasing concentrations of unlabelled peptides. Nonspecific binding was determined in the presence of 1 μM OT. Bound and free radioactivity were separated by filtration over Whatman GF/C filters presoaked in 10 mg ml^−1 BSA. The binding isotherms were analysed using GraphPad Prism.
LVT, dLVT and DOTA-dLVT affinities for the human OTR were determined by means of heterologous competition experiments on membranes prepared from transiently transfected COS7 cells using [^3H]-OT as radioligand.
as §1, with “Competition experiments were performed using membrane preparations of COS7 cells transiently transfected with the wild-type OTR.” left out, “The curves are representative of three independent assays performed in triplicate. (B) [^111In]-DOTA-dLVT saturation binding assay.” left out, “OTR.” for “OTR. The curve is representative of two independent assays performed in triplicate.”, “AVP.” for “AVP. The data are expressed as percentages of bound [^3H]-ligand in the absence of cold competitor.”

[4] = target: T2, human V1a receptor (Homo sapiens, UniProt P37288); assay: Competition binding, [3H]-AVP displacement, membranes of transfected COS7 cells; conditions: displacement of [3H]-AVP; mean±s.e. of three experiments
T2 construct: expressed in transfected cells; host or cells: COS7 (monkey kidney), transient electroporation
Protocol: as §2
(§3) Figure 3 Binding of LVT-derived peptides to human OT/AVP receptor subtypes. (A) Comparison of OT and DOTA-dLVT affinity for the human OTR. Competition experiments were performed using membrane preparations of COS7 cells transiently transfected with the wild-type OTR. [^3H]-OT was used at a concentration of 1–2 nM, and nonspecific binding was determined in the presence of […] OT. Data are expressed as the percentage of bound [^3H]-OT in the absence of cold competitor. The curves are representative of three independent assays performed in triplicate. (B) [^111In]-DOTA-dLVT saturation binding assay. The affinity of [^111In]-DOTA-dLVT for the human OTR was measured by incubating increasing amounts of labelled peptide to membrane preparations of COS7 cells transiently transfected with the wild-type OTR. The curve is representative of two independent assays performed in triplicate. (C) Receptor selectivity profile of DOTA-dLVT. Competition experiments were performed using membrane preparations of COS7 cells transiently transfected with the wild-type human OTR, and V1a, V1b and V2 receptors. The membrane preparations of OTR-expressing cells were incubated in the presence of a constant amount of ^3[H]OT (1–2 nM), and nonspecific binding was determined in the presence of 100 μM OT. The membrane preparations of cells expressing V1a, V1b and V2 receptors were incubated in the presence of a constant amount of ^3[H]AVP (2–4 nM), and nonspecific binding was determined in the presence of 100 μM AVP. The data are expressed as percentages of bound [^3H]-ligand in the absence of cold competitor. Each curve is the mean of triplicate determinations of a single representative experiment.

[5] = target: T3, human V1b receptor (Homo sapiens, UniProt P47901); assay: as above; conditions: displacement of [3H]-AVP; mean±s.e. of three experiments
T3 construct: expressed in transfected cells; host or cells: COS7 (monkey kidney), transient electroporation
T3 sequence (P47901 1-424): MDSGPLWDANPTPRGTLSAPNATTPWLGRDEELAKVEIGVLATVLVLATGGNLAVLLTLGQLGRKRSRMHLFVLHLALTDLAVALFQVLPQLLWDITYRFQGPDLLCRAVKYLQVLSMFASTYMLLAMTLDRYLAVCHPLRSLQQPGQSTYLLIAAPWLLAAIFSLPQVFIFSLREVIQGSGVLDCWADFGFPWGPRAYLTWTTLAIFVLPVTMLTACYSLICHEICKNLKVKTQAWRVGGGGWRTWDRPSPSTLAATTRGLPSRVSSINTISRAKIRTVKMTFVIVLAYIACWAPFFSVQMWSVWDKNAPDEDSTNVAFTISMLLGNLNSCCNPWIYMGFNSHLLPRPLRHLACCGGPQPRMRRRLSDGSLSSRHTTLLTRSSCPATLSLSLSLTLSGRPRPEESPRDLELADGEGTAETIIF
Protocol: as §2, §3

[6] = target: T4, human V2 receptor (Homo sapiens, UniProt P30518); assay: as above; conditions: displacement of [3H]-AVP; mean±s.e. of three experiments
T4 construct: expressed in transfected cells; host or cells: COS7 (monkey kidney), transient electroporation
Protocol: as §2, §3

[7] = tested on: OTR-positive cells (MCF7, TS/A, MOG-U-V-W); assay: Displacement of [111In]-DOTA-dLVT binding from intact tumour cells by cold peptides; format: cell-based; conditions: 5 min preincubation with 100 μM and 1 mM nonradioactive peptide
Protocol: Binding specificity was determined by evaluating radioactive displacement. Briefly, the cell suspension was incubated for 5 min in the presence of LVT, dLVT or OT 100 μM and 1 mM, or in the presence of unrelated peptides (somatostatin 100 nM and 1 μM, and hexarelin 1 μM) followed by 20 min of incubation with 1 μM [^111In]-DOTA-dLVT. The cells were then centrifuged and washed twice as described above. The activity of the two different agonists and the unrelated peptides in competing with the radioligand was evaluated by measuring cell-bound radioactivity. All of the experiments were performed in triplicate. The statistical analysis was carried out using ANOVA, with a significance cutoff point of 0.05.

T2 sequence (P37288 whole entry): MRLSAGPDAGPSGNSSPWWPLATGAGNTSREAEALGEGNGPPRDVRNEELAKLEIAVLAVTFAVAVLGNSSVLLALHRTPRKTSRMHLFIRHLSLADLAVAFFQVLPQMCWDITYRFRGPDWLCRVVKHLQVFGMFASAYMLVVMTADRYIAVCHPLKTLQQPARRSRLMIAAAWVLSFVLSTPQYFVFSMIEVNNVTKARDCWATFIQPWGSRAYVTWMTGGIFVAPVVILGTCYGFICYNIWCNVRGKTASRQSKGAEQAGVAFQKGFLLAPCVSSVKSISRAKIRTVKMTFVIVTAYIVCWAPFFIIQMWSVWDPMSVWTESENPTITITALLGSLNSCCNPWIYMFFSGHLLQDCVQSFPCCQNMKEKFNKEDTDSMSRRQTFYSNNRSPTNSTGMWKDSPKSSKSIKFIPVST
T4 sequence (P30518 whole entry): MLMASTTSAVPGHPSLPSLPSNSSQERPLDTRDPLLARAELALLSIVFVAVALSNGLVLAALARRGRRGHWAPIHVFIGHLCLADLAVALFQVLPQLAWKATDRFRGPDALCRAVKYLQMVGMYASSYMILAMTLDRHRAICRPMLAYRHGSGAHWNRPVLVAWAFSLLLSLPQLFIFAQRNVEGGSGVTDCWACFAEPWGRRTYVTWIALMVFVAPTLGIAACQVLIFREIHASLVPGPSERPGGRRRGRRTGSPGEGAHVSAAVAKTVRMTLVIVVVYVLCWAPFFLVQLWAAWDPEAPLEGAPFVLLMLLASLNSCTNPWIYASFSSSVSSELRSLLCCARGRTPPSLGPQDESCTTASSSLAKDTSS

Kd [1]: 4.5 nM
Compound: CC[C@H](C)[C@@H]1NC(=O)[C@H](Cc2ccc(O)cc2)NC(=O)CCSSC[C@@H](C(=O)N2CCC[C@H]2C(=O)N[C@@H](CCCCNC(=O)CN2CCN(CC(=O)O)CCN(CC(=O)O)CCN(CC(=O)O)CC2)C(=O)NCC(N)=O)NC(=O)[C@H](CC(N)=O)NC(=O)[C@H](CCC(N)=O)NC1=O [[^111In]-DOTA-dLVT, metal not drawn] ([Mpa]YIQNCPK(DOTA)G-NH2; disulfide 1-6)
tissue to tissue ratio at 5 h ([2]; Tumour/kidney ratio): 0.06
tissue to tissue ratio at 5 h ([2]; Tumour/liver ratio): 1.42
Tumour/blood ratio [2]: 7.58
decrease in uptake when TS/A tumours were blocked with 50 μg of cold OT [2]: three-fold decrease

Ki [3]: 3.88 ± 0.585 nM
Ki [4]: 35.5 ± 6.2 nM
Ki [5]: 71.7 ± 2 nM
Ki [6]: 3.74 ± 0.4 µM
Compound: CC[C@H](C)[C@@H]1NC(=O)[C@H](Cc2ccc(O)cc2)NC(=O)CCSSC[C@@H](C(=O)N2CCC[C@H]2C(=O)N[C@@H](CCCCN)C(=O)NCC(N)=O)NC(=O)[C@H](CC(N)=O)NC(=O)[C@H](CCC(N)=O)NC1=O [dLVT, reference compound] (HELM PEPTIDE1{[O=C(CCS[*:3])[*:2]].Y.I.Q.N.C.P.K.G.[am]}$PEPTIDE1,PEPTIDE1,1:R3-6:R3$$$V2.0)

Compound: oxytocin [OT]
specific [111In]-DOTA-dLVT binding displaced [7]: more than 92%

Source: article PMC2394487, “Improved radiotracing of oxytocin receptor-expressing tumours using the new [^111In]-DOTA-Lys^8-deamino-vasotocin analogue” (British Journal of Cancer, 2003)
